# Source: patent US10004792B2, “Peptides and combination of peptides for use in immunotherapy against various cancers” (immatics biotechnologies GmbH, priority 2015, dated 2018)
# System: HLA-A*24
# Test: MHC binding assay (UV-ligand exchange, beta2m ELISA), HLA-A*24
# Set-up: species or system human
# Settings: peptide exchange yield, binding to HLA-A*24, UV-ligand exchange, β2m ELISA
# From the text: (§1) Candidate peptides for T cell based therapies according to the present invention were further tested for their MHC binding capacity (affinity). The individual peptide-MHC complexes were produced by UV-ligand exchange, where a UV-sensitive peptide is cleaved upon UV-irradiation, and exchanged with the peptide of interest as analyzed. Only peptide candidates that can effectively bind and stabilize the peptide-receptive MHC molecules prevent dissociation of the MHC complexes. To determine the yield of the exchange reaction, an ELISA was performed based on the detection of the light chain (β2m) of stabilized MHC complexes. The assay was performed as generally described in Rodenko et al. (Rodenko et al., 2006).
# (§2) 96 well MAXISorp plates (NUNC) were coated over night with 2 ug/ml streptavidin in PBS at room temperature, washed 4× and blocked for 1 h at 37° C. in 2% BSA containing blocking buffer. Refolded HLA-A*02:01/MLA-001 monomers served as standards, covering the range of 15-500 ng/ml. Peptide-MHC monomers of the UV-exchange reaction were diluted 100 fold in blocking buffer. Samples were incubated for 1h at 37° C., washed four times, incubated with 2 ug/ml HRP conjugated anti-62m for 1 h at 37° C., washed again and detected with TMB solution that is stopped with […]. Absorption was measured at 450 nm. Candidate peptides that show a high exchange yield (preferably higher than 50%, most preferred higher than 75%) are generally preferred for a generation and production of antibodies or fragments thereof, and/or T cell receptors or fragments thereof, as they show sufficient avidity to the MHC molecules and prevent dissociation of the MHC complexes.
row,Substance,Peptide exchange
1,158 (HYSQELSLLYL; listed as Homo sapiens) [compound 158],++++ (>=75% = ++++)
2,159 (LYNKGFIYL; listed as Homo sapiens) [compound 159],++++ (>=75% = ++++)
3,163 (DYLKGLASF; listed as Homo sapiens) [compound 163],++++ (>=75% = ++++)
4,165 (DYTTWTALL; listed as Homo sapiens) [compound 165],++++ (>=75% = ++++)
5,167 (NYINRILKL; listed as Homo sapiens) [compound 167],++++ (>=75% = ++++)
6,204 (TYELRYFQI; listed as Homo sapiens) [compound 204],++++ (>=75% = ++++)
7,282 (KFVDSTFYL; listed as Homo sapiens) [compound 282],++++ (>=75% = ++++)
8,289 (KYPVEWAKF; listed as Homo sapiens) [compound 289],++++ (>=75% = ++++)

# Molecular target: HLA-A*02 (Homo sapiens, UniProt P04439, D140Y/D185E/D98H/E176V/E277Q/G131W/G231S/I119V/I121R/I166T/I218V/L300P/N151K/N90K/P208A/P217A/Q86G/Q94H/R138H/R169H)
# Test: MHC binding assay (UV-ligand exchange, beta2m ELISA), HLA-A*02
# Settings: peptide exchange yield, binding to HLA-A*02, UV-ligand exchange, β2m ELISA
# From the text: as §1, §2
row,Substance,Peptide exchange
1,1 (LLYPEPWSV; listed as Homo sapiens) [compound 1],++++ (>=75% = ++++)
2,3 (KLEENGDLYL; listed as Homo sapiens) [compound 3],++++ (>=75% = ++++)
3,14 (ILAKDLFEI; listed as Homo sapiens) [compound 14],++++ (>=75% = ++++)
4,16 (YTLDIPVLFGV; listed as Homo sapiens) [compound 16],++++ (>=75% = ++++)
5,34 (FLLATEVVTV; listed as Homo sapiens) [compound 34],++++ (>=75% = ++++)
6,42 (LLDSVSRL; listed as Homo sapiens) [compound 42],+ (<20% = +)
7,51 (LLFSRLCGA; listed as Homo sapiens) [compound 51],++++ (>=75% = ++++)
8,82 (FIFDEAEKL; listed as Homo sapiens) [compound 82],+ (<20% = +)
9,84 (ALCPRIHEV; listed as Homo sapiens) [compound 84],++++ (>=75% = ++++)
10,92 (GLLFSLRSV; listed as Homo sapiens) [compound 92],++++ (>=75% = ++++)
11,95 (GLLGSLFFL; listed as Homo sapiens) [compound 95],++++ (>=75% = ++++)
12,100 (ALLGMIIVGV; listed as Homo sapiens) [compound 100],+ (<20% = +)
13,112 (SLGKFTFDV; listed as Homo sapiens) [compound 112],++++ (>=75% = ++++)

# System: CD8+ T cells
# Test: In vitro immunogenicity: T-cell priming with aAPCs loaded with peptide/MHC and anti-CD28, multimer staining
# Assay type: cell-based, human
# Settings: healthy donor CD8+ T cells, three stimulation cycles, multimer readout
# From the text: In order to obtain information regarding the immunogenicity of the TUMAPs of the present invention, the inventors performed investigations using an in vitro T-cell priming assay based on repeated stimulations of CD8+ T cells with artificial antigen presenting cells (aAPCs) loaded with peptide/MHC complexes and anti-CD28 antibody.
# In order to perform in vitro stimulations by artificial antigen presenting cells loaded with peptide-MHC complex (pMHC) and anti-CD28 antibody, the inventors first isolated CD8+ T cells from fresh HLA-A*02 leukapheresis products via positive selection using CD8 microbeads (Miltenyi Biotec, Bergisch-Gladbach, Germany) of healthy donors obtained from the University clinics Mannheim, Germany, after informed consent.
# PBMCs and isolated CD8+ lymphocytes were incubated in T-cell medium (TCM) until use consisting of RPMI-Glutamax (Invitrogen, Karlsruhe, Germany) supplemented with 10% heat inactivated human AB serum (PAN-Biotech, Aidenbach, Germany), 100 U/ml Penicillin/100 μg/ml Streptomycin (Cambrex, Cologne, Germany), 1 mM sodium pyruvate (CC Pro, Oberdorla, Germany), 20 µg/ml Gentamycin (Cambrex). 2.5 ng/ml IL7 (PromoCell, Heidelberg, Germany) and 10 U/ml IL-2 (Novartis Pharma, Nurnberg, Germany) were also added to the TCM at this step.
# Generation of pMHC/anti-CD28 coated beads, T-cell stimulations and readout was performed in a highly defined in vitro system using four different pMHC molecules per stimulation condition and 8 different pMHC molecules per readout condition.
# The purified co-stimulatory mouse IgG2a anti human CD28 Ab 9.3 (Jung et al., 1987) was chemically biotinylated using Sulfo-N-hydroxysuccinimidobiotin as recommended by the manufacturer (Perbio, Bonn, Germany). Beads used were 5.6 μm diameter streptavidin coated polystyrene particles (Bangs Laboratories, Illinois, USA).
# pMHC used for positive and negative control stimulations were A*0201/MLA-001 (peptide […] (SEQ ID NO. 303) from modified Melan-A/MART-1) and A*0201/DDX5-001 ([…] from DDX5, SEQ ID NO. 304), respectively.
# 800.000 beads/200 μl were coated in 96-well plates in the presence of 4×12.5 ng different biotin-pMHC, washed and 600 ng biotin anti-CD28 were added subsequently in a volume of 200 μl. Stimulations were initiated in 96-well plates by co-incubating 1×10^6 CD8+ T cells with 2×10^5 washed coated beads in 200 μI TCM supplemented with 5 ng/ml IL-12 (PromoCell) for 3 days at 37° C. Half of the medium was then exchanged by fresh TCM supplemented with 80 U/ml IL-2 and incubating was continued for 4 days at 37° C. This stimulation cycle was performed for a total of three times. For the pMHC multimer readout using 8 different pMHC molecules per condition, a two-dimensional combinatorial coding approach was used as previously described (Andersen et al., 2012) with minor modifications encompassing coupling to 5 different fluorochromes. Finally, multimeric analyses were performed by staining the cells with Live/dead near IR dye (Invitrogen, Karlsruhe, Germany), CD8-FITC antibody clone SK1 (BD, Heidelberg, Germany) and fluorescent pMHC multimers. For analysis, a BD LSRII SORP cytometer equipped with appropriate lasers and filters was used. Peptide specific cells were calculated as percentage of total CD8+ cells. Evaluation of multimeric analysis was done using the FlowJo software (Tree Star, Oreg., USA). In vitro priming of specific multimer+CD8+ lymphocytes was detected by comparing to negative control stimulations.
row,Substance,Wells (in vitro immunogenicity)
1,290 (KIVDFSYSV; listed as Homo sapiens) [compound 290],++ (20%-49% = ++)
2,291 (KLDETGNSL; listed as Homo sapiens) [compound 291],+ (<20% = +)
3,292 (GMMTAILGV; listed as Homo sapiens) [compound 292],+ (<20% = +)
4,293 (FLVDGSWSI; listed as Homo sapiens) [compound 293],+ (<20% = +)
5,295 (YYPGVILGF; listed as Homo sapiens) [compound 295],++ (20%-49% = ++)
6,296 (TYVDSSHTI; listed as Homo sapiens) [compound 296],+ (<20% = +)
7,297 (PFLQASPHF; listed as Homo sapiens) [compound 297],++ (20%-49% = ++)
8,298 (RYLEGTSCI; listed as Homo sapiens) [compound 298],+ (<20% = +)
9,300 (AYVLRLETL; listed as Homo sapiens) [compound 300],+ (<20% = +)
10,301 (AYKPGALTF; listed as Homo sapiens) [compound 301],+ (<20% = +)

# Same assay, conditions: in vitro immunogenicity of HLA class I peptides; peptide-specific multimer staining after aAPC priming of CD8+ T cells
row,Substance,Wells positive [%]
1,5 (GIVAHIQEV; listed as Homo sapiens) [compound 5],+ (<20% = +)
2,18 (ILLDLTDNRL; listed as Homo sapiens) [compound 18],+ (<20% = +)
3,23 (SLFSDEFKV; listed as Homo sapiens) [compound 23],++++ (>=70% = ++++)
4,26 (ALQEELTEL; listed as Homo sapiens) [compound 26],+ (<20% = +)
5,29 (YLLDPSITL; listed as Homo sapiens) [compound 29],+ (<20% = +)
6,31 (TITETTVEV; listed as Homo sapiens) [compound 31],+ (<20% = +)
7,35 (FLLPFSTVYL; listed as Homo sapiens) [compound 35],+ (<20% = +)
8,90 (FLQDLEQRL; listed as Homo sapiens) [compound 90],+ (<20% = +)
9,141 (FLDKVLVAA; listed as Homo sapiens) [compound 141],+ (<20% = +)
10,149 (ILNTHITEL; listed as Homo sapiens) [compound 149],+ (<20% = +)
11,158 (HYSQELSLLYL; listed as Homo sapiens) [compound 158],+ (<20% = +)
12,159 (LYNKGFIYL; listed as Homo sapiens) [compound 159],++++ (>=70% = ++++)
13,163 (DYLKGLASF; listed as Homo sapiens) [compound 163],+ (<20% = +)
14,165 (DYTTWTALL; listed as Homo sapiens) [compound 165],+ (<20% = +)
15,167 (NYINRILKL; listed as Homo sapiens) [compound 167],+ (<20% = +)
16,196 (LYIDRPLPYL; listed as Homo sapiens) [compound 196],++++ (>=70% = ++++)
17,197 (EYSLFPGQVVI; listed as Homo sapiens) [compound 197],+ (<20% = +)
18,204 (TYELRYFQI; listed as Homo sapiens) [compound 204],+ (<20% = +)
19,207 (AYVVFVSTL; listed as Homo sapiens) [compound 207],+ (<20% = +)
20,218 (YYKSTSSAF; listed as Homo sapiens) [compound 218],+ (<20% = +)
21,230 (KLQNIMMLL; listed as Homo sapiens) [compound 230],++++ (>=70% = ++++)
22,268 (QYLGQIQHI; listed as Homo sapiens) [compound 268],+ (<20% = +)
23,269 (YFIDSTNLKTHF; listed as Homo sapiens) [compound 269],+ (<20% = +)
24,285 (HYPPVQVLF; listed as Homo sapiens) [compound 285],+ (<20% = +)
